# Biological target: Integrin alpha-IIb/beta-3 (Homo sapiens, UniProt P08514+P05106)
# Assay: Inhibition of alphaIIb-beta3 integrin mediated platelet aggregation
# Integrin alpha-IIb/beta-3, sequence (P05106 27-788 limits assumed): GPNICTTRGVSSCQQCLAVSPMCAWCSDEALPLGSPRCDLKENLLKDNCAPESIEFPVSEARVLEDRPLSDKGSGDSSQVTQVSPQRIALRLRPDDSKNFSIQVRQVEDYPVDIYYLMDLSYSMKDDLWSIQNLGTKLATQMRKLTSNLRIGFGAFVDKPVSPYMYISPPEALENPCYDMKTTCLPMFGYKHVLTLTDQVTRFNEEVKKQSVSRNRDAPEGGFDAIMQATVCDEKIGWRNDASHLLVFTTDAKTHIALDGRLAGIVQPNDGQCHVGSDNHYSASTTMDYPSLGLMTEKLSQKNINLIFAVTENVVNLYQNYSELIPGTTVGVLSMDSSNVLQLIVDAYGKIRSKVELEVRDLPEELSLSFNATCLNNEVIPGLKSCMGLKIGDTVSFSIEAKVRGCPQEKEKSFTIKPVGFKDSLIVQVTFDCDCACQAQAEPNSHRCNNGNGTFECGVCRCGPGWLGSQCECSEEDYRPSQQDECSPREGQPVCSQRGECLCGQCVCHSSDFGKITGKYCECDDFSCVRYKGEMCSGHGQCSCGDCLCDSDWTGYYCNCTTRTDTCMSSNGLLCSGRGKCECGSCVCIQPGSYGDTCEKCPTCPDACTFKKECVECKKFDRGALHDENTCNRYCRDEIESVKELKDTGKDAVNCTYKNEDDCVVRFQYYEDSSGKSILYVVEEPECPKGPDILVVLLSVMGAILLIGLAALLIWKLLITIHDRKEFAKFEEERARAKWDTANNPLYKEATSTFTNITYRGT
# Integrin alpha-IIb/beta-3, sequence (P08514 32-887 limits assumed): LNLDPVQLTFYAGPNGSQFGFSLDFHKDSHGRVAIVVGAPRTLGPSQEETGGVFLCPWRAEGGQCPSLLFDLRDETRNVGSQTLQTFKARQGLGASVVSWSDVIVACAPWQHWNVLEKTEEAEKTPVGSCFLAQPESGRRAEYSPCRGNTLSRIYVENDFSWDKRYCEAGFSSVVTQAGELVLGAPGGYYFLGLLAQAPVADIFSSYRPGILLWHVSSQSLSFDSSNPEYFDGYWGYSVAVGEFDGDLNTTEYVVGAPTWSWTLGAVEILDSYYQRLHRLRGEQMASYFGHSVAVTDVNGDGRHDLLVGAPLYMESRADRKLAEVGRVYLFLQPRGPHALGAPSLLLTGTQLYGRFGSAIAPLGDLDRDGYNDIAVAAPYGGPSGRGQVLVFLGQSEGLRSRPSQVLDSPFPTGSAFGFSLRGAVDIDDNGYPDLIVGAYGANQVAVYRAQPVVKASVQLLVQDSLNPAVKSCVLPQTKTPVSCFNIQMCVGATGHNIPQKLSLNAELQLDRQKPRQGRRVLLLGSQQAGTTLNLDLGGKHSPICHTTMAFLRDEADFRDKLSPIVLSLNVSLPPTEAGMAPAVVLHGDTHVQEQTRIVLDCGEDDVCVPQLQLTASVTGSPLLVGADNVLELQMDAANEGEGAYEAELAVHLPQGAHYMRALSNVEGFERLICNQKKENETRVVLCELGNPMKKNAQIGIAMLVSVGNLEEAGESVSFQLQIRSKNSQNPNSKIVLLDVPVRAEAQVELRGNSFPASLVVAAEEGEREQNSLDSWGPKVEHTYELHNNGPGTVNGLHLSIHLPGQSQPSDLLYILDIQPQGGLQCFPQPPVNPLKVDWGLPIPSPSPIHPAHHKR
# Integrin alpha-IIb/beta-3, sequence (P08514 891-1039 limits assumed): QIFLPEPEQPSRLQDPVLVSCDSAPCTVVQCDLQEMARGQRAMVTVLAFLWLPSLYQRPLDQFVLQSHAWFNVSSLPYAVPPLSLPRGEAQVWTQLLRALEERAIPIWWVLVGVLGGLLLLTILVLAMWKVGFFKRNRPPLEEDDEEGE
smiles,measurement,value
"COc1ccc([C@H](CC(=O)O)N2CCN(CCCc3ccc4c(n3)NCCC4)C2=O)cn1 [(S)-3-(6-Methoxy-pyridin-3-yl)-3-{2-oxo-3-[3-(5,6,7,8-tetrahydro-[1,8]naphthyridin-2-yl)-propyl]-imidazolidin-1-yl}-propionic acid]",IC50,34.7 µM
